Test results taken from article PMC6492551 (Carbohydrate research, 2019).

biological target: CA II (Homo sapiens, UniProt P00918); assay: esterase assay, p-nitrophenyl acetate hydrolysis; format: biochemical

IC50, > 2000 nM:
O=C1NS(=O)(=O)c2cc(-n3cc(CCO[C@@H]4O[C@H](CO)[C@H](O)[C@H](O)[C@H]4O)nn3)ccc21 [1c, saccharin-glycoconjugate 1c]
O=C1NS(=O)(=O)c2cc(-n3cc(CO[C@@H]4O[C@H](CO)[C@H](O)[C@H](O)[C@H]4O)nn3)ccc21 [1b, saccharin-glycoconjugate 1b]
O=C1NS(=O)(=O)c2cc(-n3cc(CO[C@@H]4O[C@H](CO)[C@@H](O)[C@H](O)[C@H]4O)nn3)ccc21 [1a, saccharin-glycoconjugate 1a]
